From US20230081132A1 (priority 2021, published 2023)
Converted amounts (≈) assume the structure as drawn. “And” between values parts separate entries of the source, which are not always exact repeats. Identical values can stand only once.

Key:
Type in all cases: binding
[1] = system: TTX monoclonal antibody
[2] = system: TTX monoclonal antibody; remark: listed apart in the source
[3] = system: TTX monoclonal antibody; remark: listed apart in the source

Row | Compound | FLT (a.u.) [1] | IC50 [2] [ng/mL] | competitive inhibition rate (1-T/T0) [3] | fluorescence signal value of detection line [3] [a.u.]
1 | C/C(=C/C=C/[C@@H](C)C(=O)O)[C@H]1CN[C@H](C(=O)O)[C@H]1CC(=O)O [DA] | 503422 a.u. and 504729 a.u. and 501687 a.u. and 506770 a.u. and 503922 a.u. and 508625 a.u. | – | – | –
2 | MC-LR | 452864 a.u. and 478692 a.u. and 475179 a.u. and 469265 a.u. and 465390 a.u. and 480375 a.u. | – | – | –
3 | NC1=N[C@H](O)[C@H]2[C@H]3O[C@]4(O)O[C@@H]([C@@H](O)[C@@]2(N1)[C@@H]4O)[C@]3(O)CO [TTX, Tetrodotoxin] | – | 1.713 (≈ 5.37 nM) | 0.3 | 343000
